Measurements published in patent US20200392150A1, “Diaryl-B-Lactam Compound and Preparation Method and Pharmaceutical Use Thereof” (Fudan University, priority 2016, published 2020).
Entries after “also recorded” stand apart in the source; their conditions may differ.

How the values were obtained:
[1] = system: Bax, p53 and cleaved-PARP in HeLa cells; experiment: Expression level of apoptosis associated proteins; format: cell-based, human; conditions: western blotting and qPCR
Method: A. Western blotting: After being treated with candidate compound, cells were harvested and lysed. Then, the lysate was isolated by ultracentrifuge and quantified by BCA assay according to the protocol. After being denatured, equivalent protein of each sample was separated by SDSPAGE gel and wet-transferred onto 0.22 μm nitrocellulose membrane. After being blocked by PBS containing 5% skim milk, the membrane was incubated with primary antibody at 4° C. overnight and secondary antibody at room temperature for 2 h and then visualized by enhanced chemiluminescence kit (Thermo Fisher, USA), sequentially.
B. Quantitative PCR assay: HeLa cells were treated with 69, 70 or 97. The expression level of mRNA of target proteins was tested with qPCR kit (Takara).

[2] = system: MDA-MB-231 cells; experiment: Colony formation assay; format: cell-based, human; conditions: 48 h treatment, 7-10 days growth
Method: 1000 MDA-MB-231 cells per well were seeded into 6-well plate at a single cell density and were cultured at 37° C. for 48 h. After being treated with indicated concentrations of 69, 70 and 97, CA-4 as positive control, or diluent (0.2% DMSO) as negative control for 48 h, the agents containing medium was replaced by fresh medium to allow cell growth for additional 7-10 days. Then the cells were fixed with methanol and stained with gentian violet for 30 min.
The number of colonies which consisted of more than 50 cells were counted. The results were indicated as mean values from three independent determinations.

[3] = system: cells; experiment: Cell apoptosis analysis (Annexin V/PI flow cytometry); format: cell-based; conditions: 48 h
Method: Cell apoptosis was detected using FITC Annexin V Apoptosis Detection Kit (BD Biosciences) according to manufacturer's instructions. Briefly, cells were incubated with indicated concentrations of 69, 70 and 97, CA-4 as positive control or diluent (0.2% DMSO) as negative control for 48 h. Then the cells were harvested, washed twice with PBS, and re-suspended in binding buffer. After being stained with Annexin-V and PI for 15 min in the dark place, cells were subjected to flow cytometry (Cytomics FC 500 MPL, Beckman Coulter) analysis. The results were indicated as mean values from three independent determinations.

[4] = system: tubulin in Hela cells; experiment: Immunoblotting analysis of polymerized/depolymerized tubulin; format: cell-based, human; conditions: 6 h
Method: After being treated with diluent (0.2% DMSO), tested compound, CA-4 or PTX for 6 h, Hela cells were lysed with microtubulestabilizing buffer, containing 100 mM PIPES, pH 6.8, 1 mM MgCl2, 2 mM EGTA, 0.5% NP-40, 2 M glycerol, 5 μM PTX and protease inhibitors cocktail (Roche), and the lysate was centrifuged at 15,000 rpm for 15 min. Supernatant containing depolymerized tubulin was carefully collected, whereas pellet (polymerized tubulin) was further dissolved in SDS-lysis buffer (Beyotime, China). Equal amounts of supernatant and dissolved pellet were subjected to immunoblotting analysis as described above using atubulin antibody (Proteintech).

[5] = system: tubulin in SKOV-3 cells; experiment: Immunofluorescent analysis of tubulin morphology; format: cell-based, human; conditions: 24 h
Method: After treatment with diluent (0.2% DMSO) or tested compounds at indicated concentrations for 24 h, SKOV-3 cells were fixed with methanol, permeabilized with 0.1% Triton X-100 in PBS and blocked by goat serum. Then the cells were incubated with a-tubulin antibody at 4° C. overnight, followed by incubation with Alexa 488 labeled secondary antibody (Jackson ImmunoResearch) at RT for 1 h. After being stained with DAPI, cells were examined and photographed with a Leica SP5 co-focal fluorescence microscope.

[6] = biological target: T1, Pig brain tubulin (Sus scrofa, UniProt P02550+P02554); experiment: In vitro tubulin polymerization assay; format: biochemical
T1 construct: purchased; host or cells: pig brain
Method: In vitro tubulin polymerization assay Pig brain tubulin was obtained commercially and stored in aliquots at −70° C. […] The absorbance of wavelength at 340 nm was detected every 1 min for 20 min by Spectra Max 190 spectrophotometer (Molecular Device) at 37° C. The results were indicated as mean values from three independent determinations.

[7] = system: KM mice; experiment: Acute toxicity assay; format: in vivo; conditions: for No. of dead mice 5-14 days / No. of dead mice 1 day / No. of dead mice 2 days / No. of dead mice 3 days / No. of dead mice 4 days / Survival (%) on day 14 / Total death: single i.p. injection
Method: KM mice were housed individually in a specific pathogen free facility. Groups of mice (n=10 per group, half male and half female) were injected intraperitoneally once with various dosages of 69 (95, 70, 50, 35, 25 mg/kg), 70 (500, 425, 350, 275, 200 mg/kg), 97 (275, 200, 150, 125 and 100 mg/kg) or vehicle (8.3% cremohorp EL and 8.3% alcohol in PBS) as negative control, respectively. 69, 70 and 97 was dissolved in cremeohore EL and alcohol mixture (1:1, v/v) and further diluted with PBS (1:5, v/v). The death of mice were monitored daily and recorded up to 14 days after injection.

[8] = system: Hela cells; experiment: Cell cycle analysis; format: cell-based, human; conditions: 24 h
Method: 2*10^5 Hela cells per well were seeded into six-well plate and allowed to adhere overnight at 37° C. After treatment with indicated concentrations of 69, 70 and 97, CA-4 as positive control or diluent (0.2% DMSO) as negative control for 24 h, cells were harvested, washed twice with PBS and fixed with 75% ethanol at −20° C. overnight. Then cells were stained with propidium iodide dye (BD Biosciences) for 15 min in dark conditions at room temperature, followed by subjected to flow cytometry (Cytomics FC 500MPL, Beckman Coulter) detection. The results were analyzed by Multicycle AV (for Windows, version 320) software and indicated as mean values from three independent determinations.

T1 sequence (P02554 whole entry): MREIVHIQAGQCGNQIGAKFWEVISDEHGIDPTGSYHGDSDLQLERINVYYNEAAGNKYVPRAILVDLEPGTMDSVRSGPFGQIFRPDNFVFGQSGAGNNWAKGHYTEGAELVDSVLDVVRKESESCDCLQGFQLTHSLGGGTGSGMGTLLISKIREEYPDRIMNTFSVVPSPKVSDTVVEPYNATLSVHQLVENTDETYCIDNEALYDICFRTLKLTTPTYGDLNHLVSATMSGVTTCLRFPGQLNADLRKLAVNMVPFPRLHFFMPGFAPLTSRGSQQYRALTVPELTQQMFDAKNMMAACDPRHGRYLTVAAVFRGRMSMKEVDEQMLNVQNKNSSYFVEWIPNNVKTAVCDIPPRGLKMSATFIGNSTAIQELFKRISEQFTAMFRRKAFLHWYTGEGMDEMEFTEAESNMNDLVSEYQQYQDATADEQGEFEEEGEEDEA
T1 sequence (P02550 whole entry): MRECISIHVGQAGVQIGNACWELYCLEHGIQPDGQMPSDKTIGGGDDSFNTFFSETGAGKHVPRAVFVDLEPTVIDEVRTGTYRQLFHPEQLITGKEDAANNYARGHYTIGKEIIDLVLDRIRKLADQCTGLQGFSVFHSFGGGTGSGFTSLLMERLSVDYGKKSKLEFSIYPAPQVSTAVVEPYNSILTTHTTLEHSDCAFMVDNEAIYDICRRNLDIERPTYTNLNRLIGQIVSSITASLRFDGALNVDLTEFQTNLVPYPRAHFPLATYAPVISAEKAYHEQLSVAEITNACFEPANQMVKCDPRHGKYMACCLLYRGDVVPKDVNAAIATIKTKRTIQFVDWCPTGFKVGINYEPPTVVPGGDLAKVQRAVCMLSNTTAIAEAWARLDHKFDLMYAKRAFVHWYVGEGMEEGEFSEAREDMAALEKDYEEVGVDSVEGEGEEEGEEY

## COc1ccc([C@H]2[C@H](CO)C(=O)N2c2cc(OC)c(OC)c(OC)c2)cc1O [Compound 69, (3R,4R)-4-(3-hydroxy-4-methoxyphenyl)-3-(hydroxymethyl)-1-(3,4,5-trimethoxyphenyl)azetidin-2-one]
[1]
  expression of Bax, p53 and cleaved-PARP: significantly promote the expression of the proapoptotic protein Bax, the tumor suppressor gene p53, and the cleaved DNA repair enzyme; also recorded: significantly induce the expression of Bax, p53 and cleaved-PARP
[2]
  colony formation: significantly inhibit the formation of colonies; also recorded: dose-dependently reduced
[3]
  cellular apoptosis: significantly promote apoptosis; also recorded: significantly induce cellular apoptosis
[4]
  polymerized tubulin (immunoblotting): significantly inhibit tubulin aggregation; also recorded: dramatically reduction of polymerized tubulin
[5]
  tubulin assembly (immunofluorescence): significantly inhibit tubulin aggregation; also recorded: strongly inhibit tubulin assembly
[6]
  IC50: 3.5 µM
[7]; 25 mg/kg
  No. of dead mice 5-14 days: 0
  No. of dead mice 1 day: 0
  No. of dead mice 2 days: 0
  No. of dead mice 3 days: 0
  No. of dead mice 4 days: 0
  Survival (%) on day 14: 100%
  Total death: 0
[7]; 35 mg/kg
  No. of dead mice 5-14 days: 0
  No. of dead mice 1 day: 0
  No. of dead mice 2 days: 0
  No. of dead mice 3 days: 1
  No. of dead mice 4 days: 0
  Survival (%) on day 14: 90%
  Total death: 1
[7]; 50 mg/kg
  No. of dead mice 5-14 days: 0
  No. of dead mice 1 day: 0
  No. of dead mice 2 days: 0
  No. of dead mice 3 days: 1
  No. of dead mice 4 days: 0
  Survival (%) on day 14: 90%
  Total death: 1
[7]; 70 mg/kg
  No. of dead mice 5-14 days: 1
  No. of dead mice 1 day: 0
  No. of dead mice 2 days: 0
  No. of dead mice 3 days: 4
  No. of dead mice 4 days: 2
  Survival (%) on day 14: 30%
  Total death: 7
[7]; 95 mg/kg
  No. of dead mice 5-14 days: 1
  No. of dead mice 1 day: 0
  No. of dead mice 2 days: 0
  No. of dead mice 3 days: 6
  No. of dead mice 4 days: 1
  Survival (%) on day 14: 20%
  Total death: 8
[7]; single intraperitoneal injection, 14 days
  LD50: 61.5 mg/kg
[8]
  cell cycle arrest (G2/M, mitotic arrest): significantly arrest cells in the G2/M phase; also recorded: significantly induce cellular mitotic arrest

## COc1ccc([C@H]2[C@@H](C)C(=O)N2c2cc(OC)c(OC)c(OC)c2)cc1O [Compound 70, (3R,4R)-4-(3-hydroxy-4-methoxyphenyl)-3-methyl-1-(3,4,5-trimethoxyphenyl)azetidin-2-one]
[1]
  expression of Bax, p53 and cleaved-PARP: significantly promote the expression of the proapoptotic protein Bax, the tumor suppressor gene p53, and the cleaved DNA repair enzyme; also recorded: significantly induce the expression of Bax, p53 and cleaved-PARP
[2]
  colony formation: significantly inhibit the formation of colonies; also recorded: dose-dependently reduced
[3]
  cellular apoptosis: significantly promote apoptosis; also recorded: significantly induce cellular apoptosis
[4]
  polymerized tubulin (immunoblotting): significantly inhibit tubulin aggregation; also recorded: dramatically reduction of polymerized tubulin
[5]
  tubulin assembly (immunofluorescence): significantly inhibit tubulin aggregation; also recorded: strongly inhibit tubulin assembly
[6]
  IC50: 1.7 µM
[7]; 200 mg/kg
  No. of dead mice 5-14 days: 0
  No. of dead mice 1 day: 0
  No. of dead mice 2 days: 0
  No. of dead mice 3 days: 0
  No. of dead mice 4 days: 0
  Survival (%) on day 14: 100%
  Total death: 0
[7]; 275 mg/kg
  No. of dead mice 5-14 days: 1
  No. of dead mice 1 day: 0
  No. of dead mice 2 days: 0
  No. of dead mice 3 days: 0
  No. of dead mice 4 days: 1
  Survival (%) on day 14: 80%
  Total death: 2
[7]; 350 mg/kg
  No. of dead mice 5-14 days: 0
  No. of dead mice 1 day: 0
  No. of dead mice 2 days: 0
  No. of dead mice 3 days: 1
  No. of dead mice 4 days: 0
  Survival (%) on day 14: 90%
  Total death: 1
[7]; 425 mg/kg
  No. of dead mice 5-14 days: 0
  No. of dead mice 1 day: 0
  No. of dead mice 2 days: 0
  No. of dead mice 3 days: 3
  No. of dead mice 4 days: 0
  Survival (%) on day 14: 70%
  Total death: 3
[7]; 500 mg/kg
  No. of dead mice 5-14 days: 0
  No. of dead mice 1 day: 0
  No. of dead mice 2 days: 0
  No. of dead mice 3 days: 4
  No. of dead mice 4 days: 0
  Survival (%) on day 14: 60%
  Total death: 4
[8]
  cell cycle arrest (G2/M, mitotic arrest): significantly arrest cells in the G2/M phase; also recorded: significantly induce cellular mitotic arrest
